How the values were obtained:
[1] = tested on: human urinary bladder compression muscle; experiment: Relaxation of carbachol-contracted human urinary bladder compression muscle; type: cell-based; conditions: for concentration at which the bladder compression muscle was significantly relaxed / concentration at which the muscle was not relaxed significantly: contraction provoked by carbachol (0.5×10^−6 M), each compound alone; for relaxation of bladder compression muscle, combination with propiverine: 10^−6 M propiverine plus compound (a, b, f, g 10^−9 M; c, d 10^−10 M; e, h, i 10^−8 M); for relaxation of bladder compression muscle, combination with propiverine / relaxation of bladder compression muscle, combination with oxybutynin / relaxation of bladder compression muscle, combination with tolterodine: in comparison with each compound alone; for relaxation of bladder compression muscle, combination with oxybutynin: 10^−9 M oxybutynin plus compound (a, b, f, g 10^−9 M; c 10^−10 M; e, h, i 10^−8 M); for relaxation of bladder compression muscle, combination with tolterodine: 10^−9 M tolterodine plus compound (a, b, f, g 10^−9 M; d 10^−10 M; e, h, i 10^−8 M)
[2] = tested on: salivation induced with pilocarpine; experiment: Mouth dryness: suppression of salivation induced with pilocarpine (method of Nagao et al.); type: in vivo
Description: Examples of a selectable index of toxicity include mouth dryness, which is cited as a side effect of anticholinergic agents. Such mouth dryness can be measured by evaluating suppression of salivation induced with pilocarpine in accordance with the method of Nagao et al. (Folia Pharmacologica Japonica, Vol. 113, p156-166 (1999)). Further, elevation of blood pressure that is cited as a side effect of sibutramine can also be employed as an index of toxicity. Such elevation of blood pressure can be determined through use of a pressure transducer. Gastrointestinal dysfunction (fatty stool, defecation increase, abdominal pain, impending defecation desire) that is cited as a side effect of orlistat can also be employed as an index of toxicity. Such gastrointestinal dysfunction can be examined by analyzing the stool amount and the stool composition. Promotion of appetite that is cited as a side effect of insulin secretagogue can also be employed as an index of toxicity. Such promotion of appetite can be determined by observing body weight fluctuations using an animal, and hypoglycemia can be determined by investigating the concentration of glucose in blood. Loose passage that is cited as a side effect of α-glucosidase inhibitor can also be employed as an index of toxicity. Such loose passage and diarrhea can be investigated by, in the case of administration to animal, external observation of stool, or by analysis of stool amount and stool composition. Body weight gain that is cited as a side effect of insulin resistance improving agent can also be employed as an index of toxicity. Such body weight gain can be investigated by measurement of body weight after administration to animal. Gastrointestinal dysfunction that is cited as a side effect of HMG-CoA reductase inhibitor can also be employed as an index of toxicity. Such gastrointestinal dysfunction can be investigated by analysis of stool amount and stool composition. Gastrointestinal dysfunction that is cited as a side effect of clofibrate type drugs can also be employed as an index of toxicity. […]

[3] = tested on: Mice induced with obesity by feeding with a high fat diet; experiment: Antiobestic effect (I): body weight of high fat diet obese mice, sibutramine and β3 agonist; type: in vivo; conditions: oral, 2 weeks; SIB 1 mg/kg; compound c, d 0.3 mg/kg; e, g 3 mg/kg; h, i 1 mg/kg; alone or combined at same doses
Method: (§1) Mice induced with obesity by feeding with a high fat diet for 2 months were orally administered with sibutramine (SIB: 1 mg/kg), a β3 agonist (compound c: 0.3 mg/kg; compound d: 0.3 mg/kg; compound e: 3 mg/kg; compound g: 3 mg/kg; compound h: 1 mg/kg; compound i: 1 mg/kg), or SIB and a β3 agonist (compound c, compound d, compound e, compound g, compound h, and compound i) in combination (each dosage was the same as the aforementioned) for 2 weeks and bred, and body weight was measured.

[4] = tested on: Mice induced with obesity by feeding with a high fat diet; experiment: Antiobestic effect (II): body weight of high fat diet obese mice, orlistat and β3 agonist; type: in vivo; conditions: oral, 2 weeks; orlistat 1 mg/kg; compound c, d 0.3 mg/kg; e, g 3 mg/kg; h, i 1 mg/kg; alone or combined at same doses
Method: as §1, with “orlistat (1” for “sibutramine (SIB: 1”, “orlistat” for “SIB”

[5] = tested on: Mice; experiment: Antidiabetic effect: plasma glucose in mice, insulin and β3 agonist; type: in vivo; conditions: 30 min after dosing; INS 0.2 U/kg intraperitoneal; oral compound a 10 mg/kg; c, d 0.3 mg/kg; e, g 3 mg/kg; h, i 1 mg/kg; alone or combined
Method: Mice were administered with insulin (INS: 0.2 U/kg, intraperitoneal injection), a β3 agonist (oral administration of compound a: 10 mg/kg; compound c: 0.3 mg/kg; compound d: 0.3 mg/kg; compound e: 3 mg/kg; compound g: 3 mg/kg; compound h: 1 mg/kg; compound i: 1 mg/kg, respectively), or INS and a β3 agonist (compound a, compound c, compound d, compound e, compound g, compound h, and compound i) in combination (each dosage and administration route was the same as the aforementioned), blood was collected after 30 min, and the amount of glucose contained in blood plasma was measured.

[6] = tested on: Mice fasted overnight, glucose loaded; experiment: Antidiabetic effect (II): plasma glucose after glucose loading in fasted mice, glibenclamide and β3 agonist; type: in vivo; conditions: 1 hour after glucose load (1 g/kg s.c.), oral GLI 10 mg/kg, compound a 10 mg/kg, d 0.3 mg/kg, e, g 3 mg/kg, i 1 mg/kg, vs glucose loading only
Method: Mice fasted overnight were orally administered with glibenclamide (GLI: 10 mg/kg), a β3 agonist (compound a: 10 mg/kg; compound c: 0.3 mg/kg; compound d: 0.3 mg/kg; compound e: 3 mg/kg; compound g: 3 mg/kg; compound h: 1 mg/kg; compound i: 1 mg/kg), or GLI and a β3 agonist (compound a, compound c, compound d, compound e, compound g, compound h, and compound i) in combination (each dosage was the same as the aforementioned), and immediately glucose (1 g/kg, subcutaneous injection) was loaded. Blood was collected after 1 hour, and the amount of glucose contained in blood plasma was measured.
In this combined use, hypoglycemia, which is a side effect of glibenclamide, was not observed.

[7] = tested on: Genetically diabetic mice; experiment: Antidiabetic effect (III): genetically diabetic mice, rosiglitazone and β3 agonist; type: in vivo; conditions: oral, 2 weeks; ROS 1 mg/kg; compound c, d 0.3 mg/kg; e, g 3 mg/kg; h, i 1 mg/kg; alone or combined
Method: Genetically diabetic mice were orally administered with rosiglitazone (ROS: 1 mg/kg), a β3 agonist (compound c: 0.3 mg/kg; compound d: 0.3 mg/kg; compound e: 3 mg/kg; compound g: 3 mg/kg; compound h: 1 mg/kg; compound i: 1 mg/kg), or ROS and a β3 agonist (compound c, compound d, compound e, compound g, compound h, and compound i) in combination (each dosage was the same as the aforementioned) for 2 weeks. Blood was collected thereafter, and the amount of glucose contained in blood plasma was measured.

[8] = tested on: Genetically diabetic mice; experiment: Antidiabetic effect (IV): genetically diabetic mice, acarbose and β3 agonist; type: in vivo; conditions: oral, 2 weeks; ACA 1 mg/kg; compound c, d 0.3 mg/kg; e, g 3 mg/kg; h, i 1 mg/kg; alone or combined
Method: Genetically diabetic mice were orally administered with acarbose (ACA: 1 mg/kg), a β3 agonist (compound c: 0.3 mg/kg; compound d: 0.3 mg/kg; compound e: 3 mg/kg; compound g: 3 mg/kg; compound h: 1 mg/kg; compound i: 1 mg/kg), or ACA and a β3 agonist (compound c, compound d, compound e, compound g, compound h, and compound i) in combination (each dosage was the same as the aforementioned) for 2 weeks. Blood was collected thereafter, and the amount of glucose contained in blood plasma was measured.

[9] = tested on: Mice; experiment: Antilipemic effect (II): plasma triglyceride in mice, bezafibrate and β3 agonist; type: in vivo; conditions: oral, 2 weeks; administered solely: BEZ 3 mg/kg; compound c, d 0.3 mg/kg; e, g 3 mg/kg; h, i 1 mg/kg
Method: Mice were orally administered with bezafibrate (BEZ: 3 mg/kg), a β3 agonist (compound c: 0.3 mg/kg; compound d: 0.3 mg/kg; compound e: 3 mg/kg; compound g: 3 mg/kg; compound h: 1 mg/kg; compound i: 1 mg/kg), or BEZ and a β3 agonist (compound c, compound d, compound e, compound g, compound h, and compound i) in combination (each dosage was the same as the aforementioned) for 2 weeks. Blood was collected thereafter, and the amount of triglyceride contained in blood plasma was measured.

[10] = in the condition of a reduced dosage

Row | SMILES | concentration at which the bladder compression muscle was significantly relaxed [1] | concentration at which the muscle was not relaxed significantly [1] | suppression of salivation (mouth dryness side effect) [2, 10] | relaxation of bladder compression muscle, combination with propiverine [1] | relaxation of bladder compression muscle, combination with oxybutynin [1] | relaxation of bladder compression muscle, combination with tolterodine [1] | body weight [3] | body weight [4] | blood glucose level (glucose in blood plasma) [5] | blood glucose level (glucose in blood plasma) [6] | blood glucose level (glucose in blood plasma) [7] | blood glucose level (glucose in blood plasma) [8] | plasma triglyceride level [9] | suppression of salivation (mouth dryness side effect) ([2]; in vivo)
1 | CCN(CC)CC#CCOC(=O)C(O)(c1ccccc1)C1CCCCC1 (stereo not drawn) [oxybutynin, reference compound] | 10^−8 M | 10^−9 M | observed | – | – | – | – | – | – | – | – | – | – | –
2 | CCCOC(C(=O)OC1CCN(C)CC1)(c1ccccc1)c1ccccc1 [propiverine, reference compound] | 10^−5 M | 10^−6 M | observed | – | – | – | – | – | – | – | – | – | – | –
3 | CS(=O)(=O)Nc1cc([C@@H](O)CNCCOc2ccc3c(c2)[nH]c2ccccc23)ccc1Cl [compound h, (R)-N-[5-[2-[2-(9H-carbazole-2-iloxy)ethylamino]-1-hydroxyethyl]-2-chlorophenyl]methanesulfonamide] | 10^−6 M | 10^−8 M | – | relaxed significantly | relaxed significantly | relaxed significantly | almost no change in body weight | almost no change in body weight | no change in blood glucose level | almost no difference in the blood glucose level | no difference in the blood glucose level | no difference | no difference | –
4 | Cc1ccc(O)c([C@H](CCN(C(C)C)C(C)C)c2ccccc2)c1 [tolterodine, reference compound] | 10^−8 M | 10^−9 M | – | – | – | – | – | – | – | – | – | – | – | observed
5 | CS(=O)(=O)Nc1cc([C@@H](O)CNCCOc2ccc3c(c2)[nH]c2ccccc23)ccc1Br [compound i, (R)-N-[5-[2-[2-(9H-carbazole-2-iloxy)ethylamino]-1-hydroxyethyl]-2-bromophenyl]methanesulfonamide] | 10^−6 M | 10^−8 M | – | relaxed significantly | relaxed significantly | relaxed significantly | almost no change in body weight | almost no change in body weight | no change in blood glucose level | almost no difference in the blood glucose level | no difference in the blood glucose level | no difference | no difference | –
6 | CS(=O)(=O)Nc1cc([C@@H](O)CNCCOc2ccc3c(c2)sc2ccccc23)ccc1O [compound c, (R)-N-[5-[2-[2-(dibenzothiophene-3-iloxy)ethylamino]-1-hydroxyethyl]-2-hydroxyphenyl]methanesulfonamide] | 10^−8 M | 10^−10 M | – | relaxed significantly | relaxed significantly | relaxed significantly | almost no change in body weight | almost no change in body weight | no change in blood glucose level | almost no difference in the blood glucose level | no difference in the blood glucose level | no difference | no difference | –
